Data reported in ChEMBL document CHEMBL1201862, “PubChem BioAssay data set” (2004).
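Step 1: Grow cells in 96-well plates. Step 2: Expose to compound for 48 hours at 5 concentrations. Step 3: Interpolate endpoints linearly; if unreached, use highest concentration. GI50: concentration for 50% inhibition of growth.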 The source made the active and inactive calls. Rule as the data show it: active = GI50 up to about 1.1 µM and inactive = higher.

Columns and labels:
Assay in all cases: inhibition of tumour cell growth, NCI panel, 48 h
786-0 = test system: 786-0
A498 = test system: A498
A549 = test system: A549
ACHN = test system: ACHN
BT-549 = test system: BT-549
CAKI-1 = test system: CAKI-1
CCRF-CEM = test system: CCRF-CEM
DU-145 = test system: DU-145
EKVX = test system: EKVX
HCT-116 = test system: HCT-116
HCT-15 = test system: HCT-15
HL-60 = test system: HL-60
HOP-62 = test system: HOP-62
HOP-92 = test system: HOP-92
HT-29 = test system: HT-29
Hs-578T = test system: Hs-578T
IGROV-1 = test system: IGROV-1
K562 = test system: K562
KM12 = test system: KM12
LOX IMVI = test system: LOX IMVI
M14 = test system: M14
MDA-MB-231 = test system: MDA-MB-231
MDA-MB-435 = test system: MDA-MB-435
MDA-N = test system: MDA-N
MOLT-4 = test system: MOLT-4
Malme-3M = test system: Malme-3M
NCI-H226 = test system: NCI-H226
NCI-H23 = test system: NCI-H23
NCI-H460 = test system: NCI-H460
NCI-H522 = test system: NCI-H522
NCI/ADR-RES = test system: NCI/ADR-RES
OVCAR-3 = test system: OVCAR-3
OVCAR-4 = test system: OVCAR-4
OVCAR-5 = test system: OVCAR-5
OVCAR-8 = test system: OVCAR-8
PC-3 = test system: PC-3
RXF 393 = test system: RXF 393
SF-268 = test system: SF-268
SF-295 = test system: SF-295
SK-MEL-28 = test system: SK-MEL-28
SK-MEL-2 = test system: SK-MEL-2
SK-MEL-5 = test system: SK-MEL-5
SN12C = test system: SN12C
SNB-19 = test system: SNB-19
SNB-75 = test system: SNB-75
SR = test system: SR
SW-620 = test system: SW-620
TK-10 = test system: TK-10
U-251 = test system: U-251
UACC-257 = test system: UACC-257
UACC-62 = test system: UACC-62
UO-31 = test system: UO-31

Measured: GI50

Nc1ccc(S(=O)(=O)NCCS(=O)(=O)O)cc1
inactive: 786-0 > 100 µM | A498 > 100 µM | A549 > 100 µM | ACHN > 100 µM | BT-549 > 100 µM | CAKI-1 > 100 µM | CCRF-CEM > 100 µM | DU-145 > 100 µM | EKVX > 100 µM | HCT-116 > 100 µM | HL-60 > 100 µM | HOP-62 > 100 µM | HOP-92 > 100 µM | HT-29 > 100 µM | Hs-578T > 100 µM | IGROV-1 > 100 µM | K562 > 100 µM | KM12 > 100 µM | LOX IMVI > 100 µM | M14 > 100 µM | MDA-MB-231 > 100 µM | MDA-MB-435 > 100 µM | MDA-N > 100 µM | MOLT-4 > 100 µM | Malme-3M > 100 µM | NCI-H226 > 100 µM | NCI-H23 > 100 µM | NCI-H460 > 100 µM | NCI-H522 > 100 µM | NCI/ADR-RES > 100 µM | OVCAR-3 > 100 µM | OVCAR-4 > 100 µM | OVCAR-5 > 100 µM | OVCAR-8 > 100 µM | PC-3 > 100 µM | RXF 393 > 100 µM | SF-268 > 100 µM | SF-295 > 100 µM | SK-MEL-28 > 100 µM | SK-MEL-2 > 100 µM | SK-MEL-5 > 100 µM | SN12C > 100 µM | SNB-19 > 100 µM | SNB-75 > 100 µM | SR > 100 µM | SW-620 > 100 µM | TK-10 > 100 µM | U-251 > 100 µM | UACC-257 > 100 µM | UACC-62 > 100 µM | UO-31 > 100 µM
> 100 µM: HCT-15
